# Calls of active or inactive are those of the source. The calls are words filed in the database; no cut-off is given here.
# Experiments:
# Candida albicans [1] = test: Antifungal activity against Candida albicans SC5314 assessed as inhibition of fungal growth by measuring decrease in OD600 at 100 microM measured after 24 hrs by absorbance based analysis; assay type: functional
# Candida albicans [2] = test: Potentiation of amphotericin B-induced antifungal activity against Candida albicans SC5314 assessed as fungal growth at 100 microM measured after 24 hrs in presence of amphotericin B by absorbance based analysis relative to amphotericin B-treated control; assay type: functional
# Candida albicans [3] = test: Potentiation of micafungin-induced antifungal activity against Candida albicans SC5314 assessed as fungal growth at 100 microM measured after 24 hrs in presence of micafungin by absorbance based analysis relative to micafungin-treated control; assay type: functional
# Candida albicans [4] = test: Potentiation of fluconazole-induced antifungal activity against Candida albicans SC5314 assessed as fungal growth at 100 microM measured after 24 hrs in presence of fluconazole by absorbance based analysis relative to fluconazole-treated control; assay type: functional
# Candida albicans [5] = test: Antifungal activity against Candida albicans SC5314 assessed as inhibition of fungal filamentation in YEPD containing 10% serum medium at 100 uM incubated for 1 hr by microscopic analysis; assay type: functional, organism-based
# Candida albicans [6] = test: Antifungal activity against Candida albicans SC5314 assessed as inhibition of fungal filamentation in Spider medium at 100 uM incubated for 1 hr by microscopic analysis; assay type: functional, organism-based
# Candida albicans [7] = test: Potentiation of fluconazole-induced antifungal activity against Candida albicans SC5314 assessed as inhibition of fungal filamentation by measuring reduction in fungal hyphae growth in YEPD containing 10% serum medium at 100 uM incubated for 1 hr in presence of fluconazole by microscopic analysis; assay type: functional, organism-based
# Candida albicans [8] = test: Potentiation of fluconazole-induced antifungal activity against Candida albicans SC5314 assessed as inhibition of fungal filamentation by measuring reduction in fungal hyphae growth in Spider medium at 100 uM incubated for 1 hr in presence of fluconazole by microscopic analysis; assay type: functional, organism-based
# Candida albicans [9] = test: Antifungal activity against fluconazole-resistant Candida albicans CNL011 assessed as fungal growth at 100 uM measured after 24 hrs by absorbance based analysis relative to vehicle-treated control; assay type: functional
# Candida albicans [10] = test: Antifungal activity against fluconazole-resistant Candida albicans CNL012 assessed as fungal growth at 100 uM measured after 24 hrs by absorbance based analysis relative to vehicle-treated control; assay type: functional
# Candida albicans [11] = test: Recovery of fluconazole susceptibility against fluconazole-resistant Candida albicans CNL011 assessed as inhibition of fungal growth at 100 uM measured every 15 mins for 24 hrs by absorbance based analysis; assay type: functional, organism-based
# Candida albicans [12] = test: Recovery of fluconazole susceptibility against fluconazole-resistant Candida albicans CNL012 assessed as inhibition of fungal growth at 100 uM measured every 15 mins for 24 hrs by absorbance based analysis; assay type: functional, organism-based
# [Candida] auris [13] = Antifungal activity against Candida auris NL002 assessed as fungal growth at 100 uM measured after 24 hrs by absorbance based analysis relative to vehicle-treated control; assay type: functional, Candidozyma auris
# Candida tropicalis [14] = test: Antifungal activity against Candida tropicalis NL001 assessed as fungal growth at 100 uM measured after 24 hrs by absorbance based analysis relative to vehicle-treated control; assay type: functional
# Candida parapsilosis [15] = test: Antifungal activity against Candida parapsilosis NL001 assessed as fungal growth at 100 uM measured after 24 hrs by absorbance based analysis relative to vehicle-treated control; assay type: functional
# Saccharomyces cerevisiae [16] = test: Antifungal activity against Saccharomyces cerevisiae BY4742 assessed as inhibition of fungal growth at 100 uM measured after 24 hrs by absorbance based analysis relative to vehicle-treated control; assay type: functional
# [Candida] auris [17] = Potentiation of fluconazole-induced antifungal activity against Candida auris NL002 assessed as fungal growth at 100 uM measured after 24 hrs in presence of fluconazole by absorbance based analysis relative to vehicle-treated control; assay type: functional, Candidozyma auris
# Candida tropicalis [18] = test: Potentiation of fluconazole-induced antifungal activity against Candida tropicalis NL001 assessed as fungal growth at 100 uM measured after 24 hrs in presence of fluconazole by absorbance based analysis relative to vehicle treated control; assay type: functional
# Candida parapsilosis [19] = test: Potentiation of fluconazole-induced antifungal activity against Candida parapsilosis NL001 assessed as fungal growth at 100 uM measured after 24 hrs in presence of fluconazole by absorbance based analysis relative to vehicle-treated control; assay type: functional
# [Candida] auris [20] = Potentiation of fluconazole-induced antifungal activity against Candida auris NL002 assessed as fungal growth at 100 uM measured after 24 hrs in presence of fluconazole by absorbance based analysis relative to fluconazole-treated control; assay type: functional, Candidozyma auris
# Candida tropicalis [21] = test: Potentiation of fluconazole-induced antifungal activity against Candida tropicalis NL001 assessed as fungal growth at 100 uM measured after 24 hrs in presence of fluconazole by absorbance based analysis relative to fluconazole-treated control; assay type: functional
# Candida parapsilosis [22] = test: Potentiation of fluconazole-induced antifungal activity against Candida parapsilosis NL001 assessed as fungal growth at 100 uM measured after 24 hrs in presence of fluconazole by absorbance based analysis relative to fluconazole-treated control; assay type: functional
# Saccharomyces cerevisiae [23] = test: Potentiation of fluconazole-induced antifungal activity against Saccharomyces cerevisiae BY4742 assessed as inhibition of fungal growth at 100 uM measured after 24 hrs in presence of fluconazole by absorbance based analysis relative to fluconazole-treated control; assay type: functional
# Cryptococcus neoformans [24] = test: Antifungal activity against Cryptococcus neoformans H99 assessed as inhibition of fungal growth at 0.2 uM measured every 15 mins for 24 hrs by absorbance based analysis; assay type: functional, organism-based
# Cryptococcus neoformans [25] = test: Potentiation of fluconazole-induced antifungal activity against Cryptococcus neoformans H99 assessed as inhibition of fungal growth at 0.2 uM measured every 15 mins for 24 hrs in presence of fluconazole by absorbance based analysis; assay type: functional, organism-based
# Saccharomyces cerevisiae [26] = test: Antifungal activity against Saccharomyces cerevisiae BY4742 assessed as fungal growth at 1600 uM measured after 24 hrs by absorbance based analysis relative to control; assay type: functional
# Saccharomyces cerevisiae [27] = test: Antifungal activity against Saccharomyces cerevisiae harboring adp1 delta mutant assessed as fungal growth at 1600 uM measured after 24 hrs by absorbance based analysis relative to control; assay type: functional
# Saccharomyces cerevisiae [28] = test: Antifungal activity against Saccharomyces cerevisiae harboring aus1 delta mutant assessed as fungal growth at 1600 uM measured after 24 hrs by absorbance based analysis relative to control; assay type: functional
# Saccharomyces cerevisiae [29] = test: Antifungal activity against Saccharomyces cerevisiae harboring bpt1 delta mutant assessed as fungal growth at 1600 uM measured after 24 hrs by absorbance based analysis relative to control; assay type: functional
# Saccharomyces cerevisiae [30] = test: Antifungal activity against Saccharomyces cerevisiae harboring nft1 delta mutant assessed as fungal growth at 1600 uM measured after 24 hrs by absorbance based analysis relative to control; assay type: functional
# Saccharomyces cerevisiae [31] = test: Antifungal activity against Saccharomyces cerevisiae harboring pdr5 delta mutant assessed as fungal growth at 1600 uM measured after 24 hrs by absorbance based analysis relative to control; assay type: functional
# Saccharomyces cerevisiae [32] = test: Antifungal activity against Saccharomyces cerevisiae harboring pdr10 delta mutant assessed as fungal growth at 1600 uM measured after 24 hrs by absorbance based analysis relative to control; assay type: functional
# Saccharomyces cerevisiae [33] = test: Antifungal activity against Saccharomyces cerevisiae harboring pdr11 delta mutant assessed as fungal growth at 1600 uM measured after 24 hrs by absorbance based analysis relative to control; assay type: functional
# Saccharomyces cerevisiae [34] = test: Antifungal activity against Saccharomyces cerevisiae harboring pdr12 delta mutant assessed as fungal growth at 1600 uM measured after 24 hrs by absorbance based analysis relative to control; assay type: functional
# Saccharomyces cerevisiae [35] = test: Antifungal activity against Saccharomyces cerevisiae harboring pdr15 delta mutant assessed as fungal growth at 1600 uM measured after 24 hrs by absorbance based analysis relative to control; assay type: functional
# Saccharomyces cerevisiae [36] = test: Antifungal activity against Saccharomyces cerevisiae harboring snq2 delta mutant assessed as fungal growth at 1600 uM measured after 24 hrs by absorbance based analysis relative to control; assay type: functional
# Saccharomyces cerevisiae [37] = test: Antifungal activity against Saccharomyces cerevisiae harboring vmr1 delta mutant assessed as fungal growth at 1600 uM measured after 24 hrs by absorbance based analysis relative to control; assay type: functional
# Saccharomyces cerevisiae [38] = test: Antifungal activity against Saccharomyces cerevisiae harboring ybt1 delta mutant assessed as fungal growth at 1600 uM measured after 24 hrs by absorbance based analysis relative to control; assay type: functional
# Saccharomyces cerevisiae [39] = test: Antifungal activity against Saccharomyces cerevisiae harboring ycf1 delta mutant assessed as fungal growth at 1600 uM measured after 24 hrs by absorbance based analysis relative to control; assay type: functional
# Saccharomyces cerevisiae [40] = test: Antifungal activity against Saccharomyces cerevisiae harboring ynr070w delta mutant assessed as fungal growth at 1600 uM measured after 24 hrs by absorbance based analysis relative to control; assay type: functional
# Saccharomyces cerevisiae [41] = test: Antifungal activity against Saccharomyces cerevisiae harboring yol075c delta mutant assessed as fungal growth at 1600 uM measured after 24 hrs by absorbance based analysis relative to control; assay type: functional
# Saccharomyces cerevisiae [42] = test: Antifungal activity against Saccharomyces cerevisiae harboring yor1 delta mutant assessed as fungal growth at 1600 uM measured after 24 hrs by absorbance based analysis relative to control; assay type: functional
# Saccharomyces cerevisiae [43] = test: Potentiation of fluconazole-induced antifungal activity against Saccharomyces cerevisiae BY4741 assessed as fungal growth at 100 uM measured after 24 hrs by absorbance based analysis relative to fluconazole-treated control; assay type: functional
# Saccharomyces cerevisiae [44] = test: Potentiation of fluconazole-induced antifungal activity against Saccharomyces cerevisiae YNL033 overexpressing PDR5 assessed as fungal growth at 100 uM measured after 24 hrs by absorbance based analysis relative to fluconazole-treated control; assay type: functional
# Candida albicans [45] = test: Potentiation of fluconazole-induced antifungal activity against Candida albicans CNL002 harboring cdr1 delta mutant assessed as inhibition of fungal growth at 100 uM measured after 24 hrs by absorbance based analysis; assay type: functional, organism-based
# Saccharomyces cerevisiae [46] = test: Inhibition of PDR5 in Saccharomyces cerevisiae BY4742 assessed as inhibition of R6G efflux incubated for 4 hrs followed by R6G addition and measured after 1.5 hrs by fluorescence based analysis; conditions: dose 100-400 µM, time 5.5 hrs
# Saccharomyces cerevisiae [47] = test: Inhibition of PDR5 in Saccharomyces cerevisiae BY4742 assessed as inhibition of R6G efflux at 400 uM incubated for 4 hrs followed by R6G addition and measured after 1.5 hrs by fluorescence based analysis; conditions: time 5.5 hrs
# [48] = tested on: Saccharomyces cerevisiae BY4741; test: Inhibition of PDR5 in Saccharomyces cerevisiae BY4741 assessed as intracellular accumulation of fluconazole at 400 uM measured per gm of cells after 4 hrs by HPLC analysis (reference value: 11.3 nmol); assay type: cell-based
# Saccharomyces cerevisiae [49] = test: Increase in intracellular fluconazole accumulation in Saccharomyces cerevisiae YNL032 harboring pdr5 deletion mutant at 400 uM measured after 4 hrs by HPLC analysis; assay type: functional, cell-based
# Saccharomyces cerevisiae [50] = test: Antifungal activity against Saccharomyces cerevisiae YNL013 harboring pdr5 delta mutant assessed as inhibition of fungal growth at 100 uM measured after 24 hrs by absorbance based analysis; assay type: functional, organism-based
smiles,measurement,setting,value
C[C@@H]1CC[C@H]2[C@@H](C)C(=O)O[C@@H]3O[C@@]4(C)CC[C@@H]1[C@]32OO4 [ARTEMISININ],inhibition at 100 µM,Candida albicans [1],4.9%
same,Activity,Candida albicans [2],96.1%
same,Activity,Candida albicans [3],97.7%
same,Activity,Candida albicans [4],22.6%
same,Activity,Candida albicans [5],inactive
same,Activity,Candida albicans [6],inactive
same,Activity,Candida albicans [7],Active
same,Activity,Candida albicans [8],Active
C[C@H]1[C@H](OC(=O)CCC(=O)O)O[C@@H]2O[C@@]3(C)CC[C@H]4[C@H](C)CC[C@@H]1[C@@]24OO3 [ARTESUNATE],Activity,Candida albicans [1],inactive
same,Activity,Candida albicans [3],96.9%
same,Activity,Candida albicans [4],42.9%
same,Activity,Candida albicans [5],inactive
same,Activity,Candida albicans [6],inactive
same,Activity,Candida albicans [7],Active
same,Activity,Candida albicans [8],Active
CO[C@H]1O[C@@H]2O[C@@]3(C)CC[C@H]4[C@H](C)CC[C@@H]([C@H]1C)[C@@]24OO3 [ARTEMETHER],inhibition at 100 µM,Candida albicans [1],10.1%
same,Activity,Candida albicans [2],96.1%
same,Activity,Candida albicans [3],95.2%
same,Activity,Candida albicans [4],52.6%
same,Activity,Candida albicans [5],inactive
same,Activity,Candida albicans [6],inactive
same,Activity,Candida albicans [7],Active
same,Activity,Candida albicans [8],Active
same,Activity,Candida albicans [9],86.9%
same,Activity,Candida albicans [10],91.6%
same,Activity,Candida albicans [11],Active
same,Activity,Candida albicans [12],Active
same,Activity,[Candida] auris [13],57.6%
same,Activity,Candida tropicalis [14],88.1%
same,Activity,Candida parapsilosis [15],68.6%
same,inhibition at 100 µM,Saccharomyces cerevisiae [16],45.8%
same,Activity,[Candida] auris [17],44.7%
same,Activity,Candida tropicalis [18],83.3%
same,Activity,Candida parapsilosis [19],41.5%
same,Activity,[Candida] auris [20],48.4%
same,Activity,Candida tropicalis [21],81.9%
same,Activity,Candida parapsilosis [22],41.5%
same,inhibition at 100 µM,Saccharomyces cerevisiae [23],68.8%
same,Activity,Cryptococcus neoformans [24],Active
same,Activity,Cryptococcus neoformans [25],Active
same,Activity,Saccharomyces cerevisiae [26],71.9%
same,Activity,Saccharomyces cerevisiae [27],68%
same,Activity,Saccharomyces cerevisiae [28],71%
same,Activity,Saccharomyces cerevisiae [29],71.8%
same,Activity,Saccharomyces cerevisiae [30],72.3%
same,Activity,Saccharomyces cerevisiae [31],29.8%
same,Activity,Saccharomyces cerevisiae [32],67.1%
same,Activity,Saccharomyces cerevisiae [33],77.8%
same,Activity,Saccharomyces cerevisiae [34],71.2%
same,Activity,Saccharomyces cerevisiae [35],70.2%
same,Activity,Saccharomyces cerevisiae [36],67.5%
same,Activity,Saccharomyces cerevisiae [37],65.6%
same,Activity,Saccharomyces cerevisiae [38],69.2%
same,Activity,Saccharomyces cerevisiae [39],60.3%
same,Activity,Saccharomyces cerevisiae [40],72.7%
same,Activity,Saccharomyces cerevisiae [41],67.9%
same,Activity,Saccharomyces cerevisiae [42],75.4%
same,Activity,Saccharomyces cerevisiae [43],76.5%
same,Activity,Saccharomyces cerevisiae [44],70.9%
same,Activity,Candida albicans [45],Active
same,inhibition,Saccharomyces cerevisiae [46],Dose-Dependent Effect
same,inhibition,Saccharomyces cerevisiae [47],Active
same,Activity,[48],13.1 nmol
same,Activity,Saccharomyces cerevisiae [49],Active
same,Activity,Saccharomyces cerevisiae [50],Active

# From ChEMBL document CHEMBL4808202, “Evaluation of artemisinin derivative artemether as a fluconazole potentiator through inhibition of Pdr5” (2021)
